The record followed here is patent US20260098026A1, “M4 ACTIVATORS/MODULATORS AND USES THEREOF” (Cerevel Therapeutics, LLC, priority 2022, published 2026).

T2 sequence (P20309 whole entry): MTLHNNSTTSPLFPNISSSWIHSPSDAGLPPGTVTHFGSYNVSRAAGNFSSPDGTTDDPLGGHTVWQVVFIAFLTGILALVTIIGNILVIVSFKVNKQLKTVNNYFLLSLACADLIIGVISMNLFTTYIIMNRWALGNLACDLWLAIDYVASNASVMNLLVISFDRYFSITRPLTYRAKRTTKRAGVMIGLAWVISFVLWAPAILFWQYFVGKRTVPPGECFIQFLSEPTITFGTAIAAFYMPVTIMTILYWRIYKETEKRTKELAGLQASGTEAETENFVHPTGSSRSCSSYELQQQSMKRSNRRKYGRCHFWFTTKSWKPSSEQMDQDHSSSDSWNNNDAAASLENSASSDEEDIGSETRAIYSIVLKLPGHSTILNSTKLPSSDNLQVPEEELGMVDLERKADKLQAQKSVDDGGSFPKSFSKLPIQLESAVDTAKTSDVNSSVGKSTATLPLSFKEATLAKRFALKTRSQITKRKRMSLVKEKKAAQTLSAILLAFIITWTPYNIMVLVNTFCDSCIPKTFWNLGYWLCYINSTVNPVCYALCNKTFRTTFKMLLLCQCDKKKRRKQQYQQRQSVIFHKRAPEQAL

The first test addresses T1, M4 mAChR (Homo sapiens, UniProt P08173).
T1 construct: expressed in transfected cells; host or cells: CHO-K1
T1 sequence (P08173 1-479): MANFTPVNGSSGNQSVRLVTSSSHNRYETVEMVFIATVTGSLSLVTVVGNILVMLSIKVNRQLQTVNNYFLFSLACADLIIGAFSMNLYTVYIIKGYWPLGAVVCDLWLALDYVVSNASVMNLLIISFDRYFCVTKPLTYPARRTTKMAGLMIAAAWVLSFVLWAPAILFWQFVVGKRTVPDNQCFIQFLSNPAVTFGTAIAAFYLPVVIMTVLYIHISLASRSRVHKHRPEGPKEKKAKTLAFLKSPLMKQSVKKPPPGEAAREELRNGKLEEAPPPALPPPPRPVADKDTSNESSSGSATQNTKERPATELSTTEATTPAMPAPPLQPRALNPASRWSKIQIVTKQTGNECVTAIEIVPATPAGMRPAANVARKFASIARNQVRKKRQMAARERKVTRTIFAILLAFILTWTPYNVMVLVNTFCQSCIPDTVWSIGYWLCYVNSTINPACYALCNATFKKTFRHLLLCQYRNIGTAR
The test can be described thus: cAMP TR-FRET assay with forskolin, M4-overexpressing CHO-K1 cells. The test is classed as cell-based. The following applies: cAMP TR-FRET with forskolin. In outline: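 CHO-K1 cells overexpressing the receptor were stimulated with forskolin to raise cAMP, so that Gi-mediated agonist decreases could be measured. cAMP was quantified by TR-FRET competition between cellular cAMP and labelled donor for anti-cAMP antibody, giving potency and efficacy.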
(Time-resolved FRET reads energy transfer from a long-lived donor to a nearby acceptor.)
One may read the Emax as the size of the effect at its maximum, as opposed to the concentration needed. `CCOC(=O)N1CC2(CC[C@@H](N3CCN(c4cc(F)cnc4-c4ccc(CO)cc4)CC3)C2)C1` [Compound A34] returned a maximal response (Emax) of 80 to 100%.

`CCOC(=O)N1CC2(CC[C@@H](N3CCN(c4cc(F)cnc4-c4cnn(C5COC5)c4)CC3)C2)C1` [Compound A126] showed a maximum response (Emax) of 80 to 100%.

Molecule `CCOC(=O)N1CC2(CC[C@@H](N3CCN(c4cc(F)cnc4-c4cnn(CCOC)c4)CC3)C2)C1` [Compound A38] registered a maximal effect (Emax) of 80 to 100%.

As to `CCOC(=O)N1CC2(CC[C@@H](N3CCN(c4cccnc4-c4cncc(C)c4)CC3)C2)C1` [Compound A25], the Emax is 80 to 100%.

`CCOC(=O)N1CC2(CC[C@@H](N3CCN(c4cc(F)cnc4-c4cnc(C#N)c(F)c4)CC3)C2)C1` [Compound A83] yielded a maximal effect (Emax) of 80 to 100%.

`CCOC(=O)N1CC2(CC[C@@H](N3CCN(c4cc(F)cnc4-c4ccc(=O)n(C)c4)CC3)C2)C1` [Compound A123] had an Emax of 80 to 100%.

In turn, `CCOC(=O)N1CC2(CC[C@@H](N3CCN(c4cc(F)cnc4-c4cccc5c[nH]nc45)CC3)C2)C1` [Compound A61] registered an Emax of 80 to 100%.

`CCOC(=O)N1CC2(CC[C@@H](N3CCN(c4cc(F)cnc4-c4ccnc(OC)c4F)CC3)C2)C1` [Compound A106] returned an Emax of 80 to 100%.

With `CCOC(=O)N1CC2(CC[C@@H](N3CCN(c4cc(F)cnc4-c4cnc(N(C)C)nc4)CC3)C2)C1` [Compound A73], the maximal response (Emax) was 80 to 100%.

For `CCOC(=O)N1CC2(CC[C@@H](N3CCN(c4cc(F)cnc4-c4ccc(C#N)cc4OC)CC3)C2)C1` [Compound A94], the maximum response (Emax) was in the range of 80 to 100%.

In turn, `CCOC(=O)N1CC2(CC[C@@H](N3CCN(c4cc(F)cnc4-c4cc(C)cnc4OC)CC3)C2)C1` [Compound A50] returned a maximum response (Emax) of 50 to 79.9%.

In turn, `CCOC(=O)N1CC2(CC[C@@H](N3CCN(c4cc(F)cnc4-c4cnc5c(cnn5C)c4)CC3)C2)C1` [Compound A129] registered an Emax of 80 to 100%.

As to `CCOC(=O)N1CC2(CC[C@@H](N3CCN(c4cc(F)cnc4-c4ccc5cn(C)nc5c4)CC3)C2)C1` [Compound A68], the Emax was 80 to 100%.

Turning to `CCOC(=O)N1CC2(CC[C@@H](N3CCN(c4cc(F)cnc4-c4ccn5ccnc5c4)CC3)C2)C1` [Compound A92], the maximal effect (Emax) lay within 80 to 100%.

The molecule `CCOC(=O)N1CC2(CC[C@@H](N3CCN(c4cc(F)cnc4-c4cccnc4OC)CC3)C2)C1` [Compound A46] gave a maximal response (Emax) of 80 to 100%.

Molecule `CCOC(=O)N1CC2(CC[C@@H](N3CCN(c4cc(F)cnc4-c4cccc(CCO)c4)CC3)C2)C1` [Compound A90] registered an Emax of 80 to 100%.

On to `CCOC(=O)N1CC2(CC[C@@H](N3CCN(c4cc(F)cnc4-c4cccc5c4cnn5C)CC3)C2)C1` [Compound A58], for which the Emax was 80 to 100%.

Molecule `C=CCn1cc(-c2ncc(F)cc2N2CCN([C@@H]3CCC4(C3)CN(C(=O)OCC)C4)CC2)cn1` [Compound A84] showed a maximal response (Emax) of 80 to 100%.

Turning to `CCOC(=O)N1CC2(CC[C@@H](N3CCN(c4cc(F)cnc4-c4cccc5nn(C)cc45)CC3)C2)C1` [Compound A60], the Emax was 80 to 100%.

As for `CCOC(=O)N1CC2(CC[C@@H](N3CCN(c4cc(F)cnc4-c4ccc(OC)nc4C)CC3)C2)C1` [Compound A137], the Emax lay in the range of 80 to 100%.

Take `CCOC(=O)N1CC2(CC[C@@H](N3CCN(c4cc(F)cnc4-c4cccc(CO)c4)CC3)C2)C1` [Compound A57]: the maximal response (Emax) fell in the range of 80 to 100%.

`CCOC(=O)N1CC2(CC[C@@H](N3CCN(c4cc(F)cnc4-c4ccn(CC)n4)CC3)C2)C1` [Compound A121]: the maximal response (Emax) fell in the range of 80 to 100%.

A further test concerns the target T2, M3 muscarinic acetylcholine receptor (mAChR) (Homo sapiens, UniProt P20309).
T2 construct: expressed in transfected cells; host or cells: CHO-K1
The test can be described thus: FLIPR calcium assay (Fluo 8), M3-overexpressing CHO-K1 cells. Format: cell-based. The following applies: FLIPR calcium. In a few lines: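 CHO-K1 cells overexpressing each human receptor seeded at 15,000 per well, grown overnight at 37° C., 5% CO2, then loaded with Fluo-8 for 30 min. Compounds in HBSS added and calcium response read on FLIPR; EC50 and Emax calculated per subtype.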
A word on the EC50: it is the midpoint of the concentration-response curve. Regarding `CCOC(=O)N1CC2(CC[C@@H](N3CCN(c4cc(F)cnc4-c4ccc(CO)cc4)CC3)C2)C1` [Compound A34], the concentration for a half-maximal effect (EC50) was more than 10 µM.

Regarding `CCOC(=O)N1CC2(CC[C@@H](N3CCN(c4cc(F)cnc4-c4cnn(C5COC5)c4)CC3)C2)C1` [Compound A126], the concentration giving a half-maximal response (EC50) was more than 10 µM.

Turning to `CCOC(=O)N1CC2(CC[C@@H](N3CCN(c4cc(F)cnc4-c4cnn(CCOC)c4)CC3)C2)C1` [Compound A38], the half-maximal effective concentration (EC50) is more than 10 µM.

In the case of `CCOC(=O)N1CC2(CC[C@@H](N3CCN(c4cccnc4-c4cncc(C)c4)CC3)C2)C1` [Compound A25], the concentration giving a half-maximal response (EC50) is more than 10 µM.

In the case of `CCOC(=O)N1CC2(CC[C@@H](N3CCN(c4cc(F)cnc4-c4cnc(C#N)c(F)c4)CC3)C2)C1` [Compound A83], the EC50 is more than 10 µM.

Consider `CCOC(=O)N1CC2(CC[C@@H](N3CCN(c4cc(F)cnc4-c4ccc(=O)n(C)c4)CC3)C2)C1` [Compound A123], for which the EC50 was more than 10 µM.

With `CCOC(=O)N1CC2(CC[C@@H](N3CCN(c4cc(F)cnc4-c4cccc5c[nH]nc45)CC3)C2)C1` [Compound A61], the EC50 was more than 10 µM.

Regarding `CCOC(=O)N1CC2(CC[C@@H](N3CCN(c4cc(F)cnc4-c4ccnc(OC)c4F)CC3)C2)C1` [Compound A106], the half-maximal effective concentration (EC50) is more than 10 µM.

For the molecule `CCOC(=O)N1CC2(CC[C@@H](N3CCN(c4cc(F)cnc4-c4cnc(N(C)C)nc4)CC3)C2)C1` [Compound A73], the EC50 was more than 10 µM.

On to `CCOC(=O)N1CC2(CC[C@@H](N3CCN(c4cc(F)cnc4-c4ccc(C#N)cc4OC)CC3)C2)C1` [Compound A94], for which the EC50 was more than 10 µM.

Turning to `CCOC(=O)N1CC2(CC[C@@H](N3CCN(c4cc(F)cnc4-c4cc(C)cnc4OC)CC3)C2)C1` [Compound A50], the EC50 was more than 10 µM.

In the case of `CCOC(=O)N1CC2(CC[C@@H](N3CCN(c4cc(F)cnc4-c4cnc5c(cnn5C)c4)CC3)C2)C1` [Compound A129], the EC50 was more than 10 µM.

As for `CCOC(=O)N1CC2(CC[C@@H](N3CCN(c4cc(F)cnc4-c4ccc5cn(C)nc5c4)CC3)C2)C1` [Compound A68], the half-maximal effective concentration (EC50) is more than 10 µM.

For `CCOC(=O)N1CC2(CC[C@@H](N3CCN(c4cc(F)cnc4-c4ccn5ccnc5c4)CC3)C2)C1` [Compound A92], the half-maximal effective concentration (EC50) is more than 10 µM.

As to `CCOC(=O)N1CC2(CC[C@@H](N3CCN(c4cc(F)cnc4-c4cccnc4OC)CC3)C2)C1` [Compound A46], the EC50 is more than 10 µM.

Consider `CCOC(=O)N1CC2(CC[C@@H](N3CCN(c4cc(F)cnc4-c4cccc(CCO)c4)CC3)C2)C1` [Compound A90], for which the EC50 is more than 10 µM.

As to `CCOC(=O)N1CC2(CC[C@@H](N3CCN(c4cc(F)cnc4-c4cccc5c4cnn5C)CC3)C2)C1` [Compound A58], the half-maximal effective concentration (EC50) was more than 10 µM.

`C=CCn1cc(-c2ncc(F)cc2N2CCN([C@@H]3CCC4(C3)CN(C(=O)OCC)C4)CC2)cn1` [Compound A84]: the 50% effective concentration (EC50) was more than 10 µM.

Take `CCOC(=O)N1CC2(CC[C@@H](N3CCN(c4cc(F)cnc4-c4cccc5nn(C)cc45)CC3)C2)C1` [Compound A60]: the EC50 is more than 10 µM.

With `CCOC(=O)N1CC2(CC[C@@H](N3CCN(c4cc(F)cnc4-c4ccc(OC)nc4C)CC3)C2)C1` [Compound A137], the EC50 was more than 10 µM.

In the case of `CCOC(=O)N1CC2(CC[C@@H](N3CCN(c4cc(F)cnc4-c4cccc(CO)c4)CC3)C2)C1` [Compound A57], the concentration giving a half-maximal response (EC50) is more than 10 µM.

As for `CCOC(=O)N1CC2(CC[C@@H](N3CCN(c4cc(F)cnc4-c4ccn(CC)n4)CC3)C2)C1` [Compound A121], the EC50 was more than 10 µM.
